Columns and labels:
Assay type in all cases: biochemical
PI3K (p110δ/p85α) = PI3K (p110δ/p85α) (Homo sapiens, UniProt O00329); assay: PI3Kδ assay (ADP-Glo Kinase Assay); conditions: recombinant enzyme; IC50 (nM) or max inhibition (%) at 0.5 μM
Description: Compounds disclosed herein were tested for inhibition of PI3Kδ kinase activity using commercial ADP-Glo™ Kinase Assay (Promega Corporation) and following the manufacture's instruction. Briefly, recombinant PI3K (p110δ/p85α) enzyme, lipid kinase substrate and a serial dilution of compounds disclosed herein were incubated for 0.5 hr at room temperature. ATP was added to initiate the kinase reaction. After incubation for 1 hr at room temperature, ADP-Glo™ reagent was added to terminate the kinase reaction and deplete the remaining ATP. After incubation for 1 hr at room temperature, kinase detection reagent was added to simultaneously convert ADP to ATP and allow the newly synthesized ATP to be measured using a luciferase/luciferin reaction. After incubation for 0.5 hr at room temperature, the luminescence generated was measured on a PHERAstar FS plate reader (BMG LABTECH). The residual enzyme activity in presence of increasing concentrations of compounds was calculated based on the luminescence. The IC50 for each compound was derived from fitting the data to the four-parameter logistic equation by Graphpad Prism software.

PI3K (p110α/p85α) = PI3K (p110α/p85α) (Homo sapiens, UniProt P42336); assay: PI3Kα assay (ADP-Glo Kinase Assay); conditions: recombinant enzyme; IC50 (nM) or max inhibition (%) at 0.5 μM
PI3K (p110β/p85α) = PI3K (p110β/p85α) (Homo sapiens, UniProt P42338); assay: PI3Kβ assay (ADP-Glo Kinase Assay); conditions: read-out: Enzyme activity IC50 PI3Kβ
PI3K (p110γ) = PI3K (p110γ) (Homo sapiens, UniProt P48736); assay: PI3Kγ assay (ADP-Glo Kinase Assay); conditions: recombinant enzyme; IC50 (nM) or max inhibition (%) at 0.5 μM
PI3K (p110γ), sequence (P48736 whole entry): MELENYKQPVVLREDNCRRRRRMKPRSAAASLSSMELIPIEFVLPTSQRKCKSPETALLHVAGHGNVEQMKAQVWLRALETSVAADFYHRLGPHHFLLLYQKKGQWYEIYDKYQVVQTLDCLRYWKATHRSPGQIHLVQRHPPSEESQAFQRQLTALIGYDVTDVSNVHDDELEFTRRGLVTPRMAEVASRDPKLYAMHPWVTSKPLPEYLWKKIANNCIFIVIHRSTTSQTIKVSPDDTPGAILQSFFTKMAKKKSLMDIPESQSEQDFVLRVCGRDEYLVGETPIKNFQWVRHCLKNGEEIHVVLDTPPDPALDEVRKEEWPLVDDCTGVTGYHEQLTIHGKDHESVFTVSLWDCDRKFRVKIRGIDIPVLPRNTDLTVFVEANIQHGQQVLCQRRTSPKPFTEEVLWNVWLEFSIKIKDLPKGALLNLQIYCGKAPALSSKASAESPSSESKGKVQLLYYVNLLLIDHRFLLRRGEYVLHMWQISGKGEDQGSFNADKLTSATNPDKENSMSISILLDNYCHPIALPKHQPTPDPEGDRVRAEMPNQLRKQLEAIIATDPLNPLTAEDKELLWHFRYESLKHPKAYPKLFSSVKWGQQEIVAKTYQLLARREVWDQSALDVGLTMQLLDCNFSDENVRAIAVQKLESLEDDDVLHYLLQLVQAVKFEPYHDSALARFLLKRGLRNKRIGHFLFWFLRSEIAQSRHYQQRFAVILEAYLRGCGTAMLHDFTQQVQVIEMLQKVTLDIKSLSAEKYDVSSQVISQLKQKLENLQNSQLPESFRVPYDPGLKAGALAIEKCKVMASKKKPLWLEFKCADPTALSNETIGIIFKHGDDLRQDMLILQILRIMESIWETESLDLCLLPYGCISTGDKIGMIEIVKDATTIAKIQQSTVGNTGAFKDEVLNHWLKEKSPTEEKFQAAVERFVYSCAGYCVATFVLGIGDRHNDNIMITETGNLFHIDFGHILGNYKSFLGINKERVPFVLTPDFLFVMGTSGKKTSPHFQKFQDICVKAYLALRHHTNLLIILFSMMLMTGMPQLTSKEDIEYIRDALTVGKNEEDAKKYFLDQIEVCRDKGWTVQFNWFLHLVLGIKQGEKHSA

PI3K (p110β/p85α), sequence (P42338 whole entry): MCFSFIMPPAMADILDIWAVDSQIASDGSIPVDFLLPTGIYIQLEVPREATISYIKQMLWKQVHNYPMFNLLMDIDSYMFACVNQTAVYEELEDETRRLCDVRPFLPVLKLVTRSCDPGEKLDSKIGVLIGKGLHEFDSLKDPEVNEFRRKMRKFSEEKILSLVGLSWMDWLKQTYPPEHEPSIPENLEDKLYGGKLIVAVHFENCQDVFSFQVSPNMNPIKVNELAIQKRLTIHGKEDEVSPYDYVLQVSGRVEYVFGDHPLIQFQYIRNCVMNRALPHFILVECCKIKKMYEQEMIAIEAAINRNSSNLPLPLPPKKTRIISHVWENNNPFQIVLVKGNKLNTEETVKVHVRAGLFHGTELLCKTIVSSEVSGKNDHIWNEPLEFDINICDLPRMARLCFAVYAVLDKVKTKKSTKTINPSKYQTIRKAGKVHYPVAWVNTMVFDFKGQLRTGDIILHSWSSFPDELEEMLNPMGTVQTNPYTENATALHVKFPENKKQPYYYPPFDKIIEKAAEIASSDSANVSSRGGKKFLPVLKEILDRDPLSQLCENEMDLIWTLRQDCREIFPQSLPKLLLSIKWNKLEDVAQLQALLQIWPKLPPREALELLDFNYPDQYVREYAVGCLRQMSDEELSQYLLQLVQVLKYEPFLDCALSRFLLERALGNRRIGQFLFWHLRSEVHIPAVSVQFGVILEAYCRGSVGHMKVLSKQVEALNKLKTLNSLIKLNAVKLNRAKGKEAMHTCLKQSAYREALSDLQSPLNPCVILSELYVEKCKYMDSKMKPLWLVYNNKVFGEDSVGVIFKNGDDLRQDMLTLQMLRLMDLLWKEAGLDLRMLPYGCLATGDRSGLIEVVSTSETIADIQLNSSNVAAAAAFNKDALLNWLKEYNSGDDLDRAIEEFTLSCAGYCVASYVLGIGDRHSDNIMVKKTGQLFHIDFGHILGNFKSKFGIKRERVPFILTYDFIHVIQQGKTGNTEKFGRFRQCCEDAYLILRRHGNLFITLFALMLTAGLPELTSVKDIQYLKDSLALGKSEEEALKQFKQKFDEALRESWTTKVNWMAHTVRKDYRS
PI3K (p110β/p85α), sequence (P27986 whole entry partner): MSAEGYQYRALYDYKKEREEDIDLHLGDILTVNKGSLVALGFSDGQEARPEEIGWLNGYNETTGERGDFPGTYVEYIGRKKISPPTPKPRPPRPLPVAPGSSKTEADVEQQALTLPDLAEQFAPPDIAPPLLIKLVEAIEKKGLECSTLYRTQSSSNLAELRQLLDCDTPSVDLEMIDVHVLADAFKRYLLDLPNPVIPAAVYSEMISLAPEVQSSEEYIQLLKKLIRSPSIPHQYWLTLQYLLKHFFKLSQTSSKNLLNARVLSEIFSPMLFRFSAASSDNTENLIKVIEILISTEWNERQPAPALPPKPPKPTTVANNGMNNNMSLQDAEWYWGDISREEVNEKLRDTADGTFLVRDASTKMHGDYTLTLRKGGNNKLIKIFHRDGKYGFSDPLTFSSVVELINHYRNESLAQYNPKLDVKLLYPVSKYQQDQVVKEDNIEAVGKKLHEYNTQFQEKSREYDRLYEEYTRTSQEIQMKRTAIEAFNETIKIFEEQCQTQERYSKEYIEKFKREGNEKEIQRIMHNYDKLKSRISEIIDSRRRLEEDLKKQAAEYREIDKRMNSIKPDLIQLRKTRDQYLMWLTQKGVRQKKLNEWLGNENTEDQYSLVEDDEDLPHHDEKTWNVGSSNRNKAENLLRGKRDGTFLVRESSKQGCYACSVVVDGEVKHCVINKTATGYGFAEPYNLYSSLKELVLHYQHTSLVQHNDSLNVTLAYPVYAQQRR
PI3K (p110δ/p85α), sequence (O00329 whole entry): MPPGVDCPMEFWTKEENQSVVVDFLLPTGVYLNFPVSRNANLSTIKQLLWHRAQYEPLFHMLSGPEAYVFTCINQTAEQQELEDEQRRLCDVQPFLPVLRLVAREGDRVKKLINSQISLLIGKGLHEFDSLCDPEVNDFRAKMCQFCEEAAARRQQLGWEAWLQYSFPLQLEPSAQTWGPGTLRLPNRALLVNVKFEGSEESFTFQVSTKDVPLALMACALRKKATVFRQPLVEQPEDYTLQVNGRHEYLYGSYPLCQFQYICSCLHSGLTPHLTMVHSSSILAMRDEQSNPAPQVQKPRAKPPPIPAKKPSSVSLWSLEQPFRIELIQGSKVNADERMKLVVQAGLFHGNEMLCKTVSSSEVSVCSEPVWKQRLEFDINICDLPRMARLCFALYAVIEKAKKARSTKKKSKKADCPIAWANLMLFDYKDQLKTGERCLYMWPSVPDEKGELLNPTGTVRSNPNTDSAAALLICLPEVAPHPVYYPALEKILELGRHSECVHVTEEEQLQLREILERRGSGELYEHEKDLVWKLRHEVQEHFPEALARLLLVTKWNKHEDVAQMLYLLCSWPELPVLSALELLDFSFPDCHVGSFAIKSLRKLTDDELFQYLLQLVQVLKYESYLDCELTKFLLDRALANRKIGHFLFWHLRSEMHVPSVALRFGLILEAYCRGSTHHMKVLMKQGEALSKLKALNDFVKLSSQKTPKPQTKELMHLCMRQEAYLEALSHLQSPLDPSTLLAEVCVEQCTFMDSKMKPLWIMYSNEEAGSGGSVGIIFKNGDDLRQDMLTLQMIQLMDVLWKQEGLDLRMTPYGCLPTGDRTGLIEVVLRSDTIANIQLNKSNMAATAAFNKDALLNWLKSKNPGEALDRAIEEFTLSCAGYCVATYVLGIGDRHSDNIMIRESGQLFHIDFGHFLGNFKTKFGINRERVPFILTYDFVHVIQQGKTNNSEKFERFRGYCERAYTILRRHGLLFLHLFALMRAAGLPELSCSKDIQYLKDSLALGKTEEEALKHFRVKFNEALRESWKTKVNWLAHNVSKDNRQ
PI3K (p110δ/p85α), sequence (P27986 whole entry partner): as the sequence (P27986 whole entry partner) above
PI3K (p110α/p85α), sequence (P42336 whole entry): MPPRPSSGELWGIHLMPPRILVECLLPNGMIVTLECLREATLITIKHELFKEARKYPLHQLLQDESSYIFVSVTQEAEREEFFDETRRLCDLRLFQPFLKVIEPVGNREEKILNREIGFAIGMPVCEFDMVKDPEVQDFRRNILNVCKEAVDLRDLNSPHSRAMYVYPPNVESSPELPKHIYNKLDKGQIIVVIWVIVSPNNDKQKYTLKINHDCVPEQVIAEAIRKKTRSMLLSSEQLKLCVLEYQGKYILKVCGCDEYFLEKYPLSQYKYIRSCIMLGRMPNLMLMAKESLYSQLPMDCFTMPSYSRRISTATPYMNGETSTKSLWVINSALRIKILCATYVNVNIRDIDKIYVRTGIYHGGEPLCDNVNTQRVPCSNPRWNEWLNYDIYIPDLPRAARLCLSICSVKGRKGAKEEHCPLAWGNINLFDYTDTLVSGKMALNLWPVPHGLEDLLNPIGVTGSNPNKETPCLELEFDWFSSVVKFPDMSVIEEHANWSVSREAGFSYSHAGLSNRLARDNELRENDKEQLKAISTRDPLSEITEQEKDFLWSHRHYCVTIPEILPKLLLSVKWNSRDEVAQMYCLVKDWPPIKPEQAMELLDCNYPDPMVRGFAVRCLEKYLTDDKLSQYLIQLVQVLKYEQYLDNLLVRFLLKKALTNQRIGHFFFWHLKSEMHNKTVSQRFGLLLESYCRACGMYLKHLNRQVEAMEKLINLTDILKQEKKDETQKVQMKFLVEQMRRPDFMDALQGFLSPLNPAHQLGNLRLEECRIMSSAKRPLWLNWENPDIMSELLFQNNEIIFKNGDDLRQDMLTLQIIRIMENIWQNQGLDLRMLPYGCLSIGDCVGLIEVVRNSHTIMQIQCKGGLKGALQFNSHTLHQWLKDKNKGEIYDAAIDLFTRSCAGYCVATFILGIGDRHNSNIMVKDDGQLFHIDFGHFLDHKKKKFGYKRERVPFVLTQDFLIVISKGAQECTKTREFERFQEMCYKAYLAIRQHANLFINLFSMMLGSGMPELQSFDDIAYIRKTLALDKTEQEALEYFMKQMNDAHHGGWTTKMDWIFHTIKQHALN
PI3K (p110α/p85α), sequence (P27986 whole entry partner): as the sequence (P27986 whole entry partner) above

| IC50 (PI3K (p110δ/p85α)) | IC50 (PI3K (p110α/p85α)) | IC50 (PI3K (p110β/p85α)) | IC50 (PI3K (p110γ)) | SMILES |
| --- | --- | --- | --- | --- |
| 1.2 nM | 36000 nM | 21 µM | 4800 nM | Cc1nc([C@@H](C)c2cc(Cl)c(F)c(C(=O)NCC3CC3)c2OC(C)C)n2ccnc(N)c12 [Compound 42, (S)-3-(1-(8-amino-1-methylimidazo[1,5-a]pyrazin-3-yl)ethyl)-5-chloro-N-(cyclopropylmethyl)-6-fluoro-2-isopropoxybenzamide] |
| 1.4 nM | 21000 nM | 12 µM | 4500 nM | Cc1nc([C@@H](C)c2cc(Cl)c(F)c(C(=O)N[C@H]3C[C@H](O)C3)c2OC(C)C)n2ccnc(N)c12 [Compound 61, 3-((S)-1-(8-amino-1-methylimidazo[1,5-a]pyrazin-3-yl)ethyl)-5-chloro-6-fluoro-N-((trans)-3-hydroxycyclobutyl)-2-isopropoxybenzamide] |
| 1.4 nM | 17000 nM | 29 µM | 9000 nM | Cc1nc([C@@H](C)c2cc(Cl)c(F)c(C(=O)N[C@H]3CC[C@@H](O)CC3)c2OC(C)C)n2ccnc(N)c12 [Compound 62, 3((S)-1-(8-amino-1-methylimidazo[1,5-a]pyrazin-3-yl)ethyl)-5-chloro-6-fluoro-N-((cis)-4-hydroxycyclohexyl)-2-isopropoxybenzamide] |
| 9.9 nM | – | – | – | Cc1nc([C@@H](C)c2cc(Cl)c(F)c(C(=O)N[C@@H]3CCC[C@@H]3O)c2OC(C)C)n2ccnc(N)c12 [Compound 23, 3((S)-1-(8-amino-1-methylimidazo[1,5-a]pyrazin-3-yl)ethyl)-5-chloro-6-fluoro-N-((1R,2S)-2-hydroxycyclopentyl)-2-isopropoxybenzamide] |
| 1.4 nM | 10000 nM | 40 µM | 2500 nM | Cc1nc([C@@H](C)c2cc(Cl)c(F)c(C(=O)N3CC4CCC(C3)O4)c2OC(C)C)n2ccnc(N)c12 [Compound 52, (3-((S)-1-(8-amino-1-methylimidazo[1,5-a]pyrazin-3-yl)ethyl)-5-chloro-6-fluoro-2-isopropoxyphenyl)(8-oxa-3-azabicyclo[3.2.1]octan-3-yl)methanone] |
| > 1000 nM | – | – | – | Cc1nc(C(C)c2cc(Cl)c(F)c(C(=O)N3CCC(F)(F)CC3)c2OC(C)C)n2ccnc(N)c12 (single isomer, unassigned) [Compound 13B] |
| 3.7 nM | – | – | – | Cc1nc([C@@H](C)c2cc(Cl)c(F)c(C(=O)N[C@H](C)c3ccccc3)c2OC(C)C)n2ccnc(N)c12 [Compound 22, 3-((S)-1-(8-amino-1-methylimidazo[1,5-a]pyrazin-3-yl)ethyl)-5-chloro-6-fluoro-2-isopropoxy-N-((R)-1-phenylethyl)benzamide] |
| 3.8 nM | 77000 nM | 72 µM | 14000 nM | COC[C@@H]1CCCN1C(=O)c1c(F)c(Cl)cc([C@H](C)c2nc(C)c3c(N)nccn23)c1OC(C)C [Compound 17, (3-((S)-1-(8-amino-1-methylimidazo[1,5-a]pyrazin-3-yl)ethyl)-5-chloro-6-fluoro-2-isopropoxyphenyl)((S)-2-(methoxymethyl)pyrrolidin-1-yl)methanone] |
| 1.2 nM | 24000 nM | 6.8 µM | 4800 nM | CCNC(=O)c1c(F)c(Cl)cc([C@H](C)c2nc(C)c3c(N)nccn23)c1OC(C)C [Compound 28, (S)-3-(1-(8-amino-1-methylimidazo[1,5-a]pyrazin-3-yl)ethyl)-5-chloro-6-fluoro-2-isopropoxy-N-ethyl-benzamide] |
| 1.2 nM | 15000 nM | 20 µM | 6100 nM | Cc1nc([C@@H](C)c2cc(Cl)c(F)c(C(=O)NCC3CCCOC3)c2OC(C)C)n2ccnc(N)c12 (stereo partly drawn) [Compound 50, 3-((S)-1-(8-amino-1-methylimidazo[1,5-a]pyrazin-3-yl)ethyl)-5-chloro-6-fluoro-2-isopropoxy-N-((tetrahydro-2H-pyran-3-yl)methyl)benzamide] |
| 1.4 nM | 18000 nM | 13 µM | 7900 nM | Cc1nc(C(C)c2cc(Cl)c(F)c(C(=O)N[C@H]3CC[C@@H](O)C3)c2OC(C)C)n2ccnc(N)c12 (single isomer, unassigned) [Compound 14A] |
| 4 nM | 20000 nM | 17 µM | 11000 nM | Cc1nc([C@@H](C)c2cc(Cl)c(F)c(C(=O)NCCN(C)C)c2OC(C)C)n2ccnc(N)c12 [Compound 16, (S)-3-(1-(8-amino-1-methylimidazol[1,5-a]pyrazin-3-yl)ethyl)-5-chloro-N-(2-(dimethylamino)ethyl)-6-fluoro-2-isopropoxybenzamide] |
| 0.86 nM | 24000 nM | 17 µM | 6500 nM | Cc1nc([C@@H](C)c2cc(Cl)c(F)c(C(=O)NCCC3CCOCC3)c2OC(C)C)n2ccnc(N)c12 [Compound 26, (S)-3-(1-(8-amino-1-methylimidazol[1,5-a]pyrazin-3-yl)ethyl)-5-chloro-6-fluoro-2-isopropoxy-N-(2-(tetrahydro-2H-pyran-4-yl)ethyl)benzamide] |
| 8 nM | – | – | – | Cc1nc([C@@H](C)c2cc(Cl)c(F)c(C(=O)N3C[C@@H](C)O[C@@H](C)C3)c2OC(C)C)n2ccnc(N)c12 [Compound 67, (3-((S)-1-(8-amino-1-methylimidazo[1,5-a]pyrazin-3-yl)ethyl)-5-chloro-6-fluoro-2-isopropoxyphenyl)((2R,6S)-2,6-dimethylmorpholino)methanone] |
| 9.1 nM | – | – | – | Cc1nc([C@@H](C)c2cc(Cl)c(F)c(C(=O)N[C@@H]3CCCC[C@@H]3O)c2OC(C)C)n2ccnc(N)c12 [Compound 48, 3-((S)-1-(8-amino-1-methylimidazo[1,5-a]pyrazin-3-yl)ethyl)-5-chloro-6-fluoro-N-((1R,2S)-2-hydroxycyclohexyl)-2-isopropoxybenzamide] |
| 2.1 nM | – | – | – | Cc1nc([C@@H](C)c2cc(Cl)c(F)c(C(=O)N3CCC[C@H](O)C3)c2OC(C)C)n2ccnc(N)c12 [Compound 20, (3-((S)-1-(8-amino-1-methylimidazo[1,5-a]pyrazin-3-yl)ethyl)-5-chloro-6-fluoro-2-isopropoxyphenyl)((S)-3-hydroxypiperidin-1-yl)methanone] |
| > 1000 nM | – | – | – | Cc1nc(C(C)c2cc(Cl)c(F)c(C(=O)N3CCOCC3)c2OC(C)C)n2ccnc(N)c12 (single isomer, unassigned) [Compound 4B] |
| 3.9 nM | – | – | – | Cc1nc([C@@H](C)c2cc(Cl)c(F)c(C(=O)N[C@@H]3CCCC[C@H]3O)c2OC(C)C)n2ccnc(N)c12 [Compound 49, 3-((S)-1-(8-amino-1-methylimidazol[1,5-a]pyrazin-3-yl)ethyl)-5-chloro-6-fluoro-N-((1R,2R)-2-hydroxycyclohexyl)-2-isopropoxybenzamide] |
| 6.5 nM | – | – | – | Cc1nc([C@@H](C)c2cc(Cl)c(F)c(C(=O)N[C@]3(C)CC[C@@H](O)CC3)c2OC(C)C)n2ccnc(N)c12 [Compound 40, 3-((S)-1-(8-amino-1-methylimidazo[1,5-a]pyrazin-3-yl)ethyl)-5-chloro-6-fluoro-N-((1R,4S)-4-hydroxy-1-methylcyclohexyl)-2-isopropoxybenzamide] |
| – | 21000 nM | 20 µM | 6300 nM | Cc1nc([C@@H](C)c2cc(Cl)c(F)c(C(=O)NC3(CO)CC3)c2OC(C)C)n2ccnc(N)c12 [Compound 5A] |
| 6.8 nM | – | – | – | Cc1nc([C@@H](C)c2cc(Cl)c(F)c(C(=O)N[C@H](C)[C@@H](C)O)c2OC(C)C)n2ccnc(N)c12 [Compound 72, 3-((S)-1-(8-amino-1-methylimidazo[1,5-a]pyrazin-3-yl)ethyl)-5-chloro-6-fluoro-N-((2R,3R)-3-hydroxybutan-2-yl)-2-isopropoxybenzamide] |
| 2.9 nM | – | > 50 µM | 6900 nM | CO[C@H]1CCCN(C(=O)c2c(F)c(Cl)cc([C@H](C)c3nc(C)c4c(N)nccn34)c2OC(C)C)C1 [Compound 65, (3-((S)-1-(8-amino-1-methylimidazo[1,5-a]pyrazin-3-yl)ethyl)-5-chloro-6-fluoro-2-isopropoxyphenyl)((S)-3-methoxypiperidin-1-yl)methanone] |
| – | 56000 nM | 16 µM | 10000 nM | Cc1nc(C(C)c2cc(Cl)c(F)c(C(=O)NC3(CO)CC3)c2OC(C)C)n2ccnc(N)c12 (centres unmarked) [Compound 5, 3-(1-(8-amino-1-methylimidazo[1,5-a]pyrazin-3-yl)ethyl)-5-chloro-6-fluoro-N-(1-(hydroxymethyl)cyclopropyl)-2-isopropoxybenzamide] |
| 11 nM | – | – | – | Cc1nc([C@@H](C)c2cc(Cl)c(F)c(C(=O)NC3(CN(C)C)CC3)c2OC(C)C)n2ccnc(N)c12 [Compound 54, (S)-3-(1-(8-amino-1-methylimidazo[1,5-a]pyrazin-3-yl)ethyl)-5-chloro-N-(1-((dimethylamino)methyl)cyclopropyl)-6-fluoro-2-isopropoxybenzamide] |
| 3.2 nM | – | – | – | Cc1nc([C@@H](C)c2cc(Cl)c(F)c(C(=O)N(C)C)c2OC(C)C)n2ccnc(N)c12 [Compound 32, (S)-3-(1-(8-amino-1-methylimidazo[1,5-a]pyrazin-3-yl)ethyl)-5-chloro-6-fluoro-2-isopropoxy-N,N-dimethylbenzamide] |
| 320 nM | – | – | – | Cc1nc(C(C)c2cc(Cl)c(F)c(C(=O)N[C@H]3CC[C@@H](O)C3)c2OC(C)C)n2ccnc(N)c12 (single isomer, unassigned) [Compound 14B] |
